Assay [1] has as its target T1, Matrilysin (Homo sapiens, UniProt P09237).
T1 sequence (P09237 whole entry): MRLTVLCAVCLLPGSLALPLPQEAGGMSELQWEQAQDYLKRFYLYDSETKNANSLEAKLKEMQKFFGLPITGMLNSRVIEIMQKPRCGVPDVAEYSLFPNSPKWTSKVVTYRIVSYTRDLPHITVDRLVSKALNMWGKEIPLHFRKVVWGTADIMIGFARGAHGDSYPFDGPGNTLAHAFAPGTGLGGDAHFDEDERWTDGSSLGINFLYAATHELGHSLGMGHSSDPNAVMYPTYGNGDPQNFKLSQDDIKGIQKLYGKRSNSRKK
As to the kind of experiment: Inhibition of recombinant human MMP7.

For assay [2], the target named is Collagenase 3 (Homo sapiens, UniProt P45452). As to the kind of experiment: Inhibition of recombinant human MMP13.
Assay [3] has as its target T2, A disintegrin and metalloproteinase with thrombospondin motifs 4 (Homo sapiens, UniProt O75173).
T2 sequence (O75173 whole entry): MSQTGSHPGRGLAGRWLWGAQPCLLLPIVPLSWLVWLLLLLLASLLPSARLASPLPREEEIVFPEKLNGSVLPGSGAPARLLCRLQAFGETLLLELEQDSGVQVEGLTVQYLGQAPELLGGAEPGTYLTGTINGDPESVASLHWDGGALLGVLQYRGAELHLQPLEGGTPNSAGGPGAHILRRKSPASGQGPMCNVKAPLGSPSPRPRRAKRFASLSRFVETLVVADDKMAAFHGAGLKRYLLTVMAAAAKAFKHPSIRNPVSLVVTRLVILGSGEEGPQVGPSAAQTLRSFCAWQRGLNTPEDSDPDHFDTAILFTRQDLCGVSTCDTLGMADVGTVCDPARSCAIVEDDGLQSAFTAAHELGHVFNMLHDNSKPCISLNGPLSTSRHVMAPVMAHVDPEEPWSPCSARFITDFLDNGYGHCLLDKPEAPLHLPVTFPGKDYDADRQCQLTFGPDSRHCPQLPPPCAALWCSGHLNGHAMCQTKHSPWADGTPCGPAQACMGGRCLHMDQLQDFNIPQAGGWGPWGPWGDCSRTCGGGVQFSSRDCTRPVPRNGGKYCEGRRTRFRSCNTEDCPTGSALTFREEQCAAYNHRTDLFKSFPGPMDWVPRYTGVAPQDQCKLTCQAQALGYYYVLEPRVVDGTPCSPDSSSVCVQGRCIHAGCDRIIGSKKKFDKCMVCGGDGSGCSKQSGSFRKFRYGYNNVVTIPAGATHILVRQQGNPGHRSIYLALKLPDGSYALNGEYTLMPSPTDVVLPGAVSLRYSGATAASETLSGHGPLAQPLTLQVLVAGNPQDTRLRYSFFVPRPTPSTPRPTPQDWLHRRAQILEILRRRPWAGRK
As to the kind of experiment: Inhibition of recombinant human ADAMTS-4.

Assay [4] has as its target 72 kDa type IV collagenase (Homo sapiens, UniProt P08253). Description: Inhibition of recombinant human MMP2.
In assay [5] the target is T3, A disintegrin and metalloproteinase with thrombospondin motifs 5 (Homo sapiens, UniProt Q9UNA0).
T3 sequence (Q9UNA0 whole entry): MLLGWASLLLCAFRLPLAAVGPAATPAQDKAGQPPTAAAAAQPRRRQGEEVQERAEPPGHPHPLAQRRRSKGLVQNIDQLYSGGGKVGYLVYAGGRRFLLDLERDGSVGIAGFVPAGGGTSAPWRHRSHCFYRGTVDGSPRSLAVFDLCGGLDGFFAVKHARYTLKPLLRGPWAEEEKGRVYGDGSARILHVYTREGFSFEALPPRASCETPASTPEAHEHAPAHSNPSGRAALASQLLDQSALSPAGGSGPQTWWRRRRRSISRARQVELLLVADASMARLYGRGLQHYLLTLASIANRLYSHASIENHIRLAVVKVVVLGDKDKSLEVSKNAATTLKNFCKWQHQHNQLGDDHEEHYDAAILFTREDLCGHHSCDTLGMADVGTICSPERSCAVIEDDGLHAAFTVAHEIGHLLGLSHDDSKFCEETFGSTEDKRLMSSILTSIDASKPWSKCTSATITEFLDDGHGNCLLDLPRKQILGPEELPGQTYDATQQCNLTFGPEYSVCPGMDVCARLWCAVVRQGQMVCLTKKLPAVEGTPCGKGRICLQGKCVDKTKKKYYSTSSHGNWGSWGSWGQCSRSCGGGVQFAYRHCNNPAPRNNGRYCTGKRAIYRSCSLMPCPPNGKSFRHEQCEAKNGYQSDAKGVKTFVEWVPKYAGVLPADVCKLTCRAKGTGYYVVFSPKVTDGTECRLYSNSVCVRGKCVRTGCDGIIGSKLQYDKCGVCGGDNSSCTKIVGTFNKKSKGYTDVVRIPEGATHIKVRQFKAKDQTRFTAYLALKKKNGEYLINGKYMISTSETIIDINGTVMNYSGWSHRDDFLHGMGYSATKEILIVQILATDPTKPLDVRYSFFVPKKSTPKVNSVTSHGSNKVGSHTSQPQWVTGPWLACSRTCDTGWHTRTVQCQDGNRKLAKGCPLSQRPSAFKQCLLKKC
As to the kind of experiment: Inhibition of recombinant human ADAMTS-5.

This note sets out measurements from ChEMBL document CHEMBL5236577, “Targeting Aggrecanases for Osteoarthritis Therapy: From Zinc Chelation to Exosite Inhibition” (J Med Chem, 2022).

72 kDa type IV collagenase, sequence (P08253 whole entry): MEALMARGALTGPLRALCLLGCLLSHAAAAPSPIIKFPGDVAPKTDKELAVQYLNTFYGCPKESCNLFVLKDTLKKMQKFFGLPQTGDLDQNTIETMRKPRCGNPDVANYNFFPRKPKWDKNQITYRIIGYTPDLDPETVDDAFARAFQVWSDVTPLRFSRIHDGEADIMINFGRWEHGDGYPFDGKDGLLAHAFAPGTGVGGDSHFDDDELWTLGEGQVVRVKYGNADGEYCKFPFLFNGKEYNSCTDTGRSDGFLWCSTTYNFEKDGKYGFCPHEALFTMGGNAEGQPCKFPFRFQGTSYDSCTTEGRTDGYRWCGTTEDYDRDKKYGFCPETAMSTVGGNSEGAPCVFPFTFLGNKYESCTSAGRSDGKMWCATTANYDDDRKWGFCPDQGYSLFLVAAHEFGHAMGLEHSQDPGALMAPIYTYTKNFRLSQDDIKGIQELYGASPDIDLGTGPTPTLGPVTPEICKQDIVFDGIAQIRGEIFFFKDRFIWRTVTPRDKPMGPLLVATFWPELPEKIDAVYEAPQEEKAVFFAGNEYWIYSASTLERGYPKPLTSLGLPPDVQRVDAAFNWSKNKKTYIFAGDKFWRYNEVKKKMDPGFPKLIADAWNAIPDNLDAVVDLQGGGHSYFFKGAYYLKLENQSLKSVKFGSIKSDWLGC

For the molecule `O=c1cc(-c2ccc(O)c(O)c2)oc2cc(O)cc(O)c12` [LUTEOLIN], the half-inhibitory concentration (IC50) (in general, the concentration at which inhibition is half-maximal) came to 68.2 µM in assay [1]; 18.3 µM in assay [2]; 9.8 µM in assay [3]; 40.9 µM in assay [4]; 12.2 µM in assay [5].
